Measurements from US20160271263A1 (Novo Nordisk A/S, priority 2010, published 2016).
Numbered stars: 1 amine (or outer) side, 2 acyl side, 3 side chain; on linkers, the order of the positions; unused ones are H or OH. Square brackets hold non-standard residues; d marks the D form. Side chains are listed from the residue outwards. Peptide text beside a SMILES is read from it. * marks the point of attachment. C18 diacid = O=C(O)CCCCCCCCCCCCCCCCC(=O)*; γGlu = O=C(O)[C@H](CCC(=O)[*:2])N[*:1]; AEEA = NCCOCCOCC(=O)O; Aib = CC(C)(N)C(=O)O

The compounds below were run against glucagon receptor (Homo sapiens, UniProt P47871) (assay: cell-based).
Chain of glucagon receptor (P47871 26-477): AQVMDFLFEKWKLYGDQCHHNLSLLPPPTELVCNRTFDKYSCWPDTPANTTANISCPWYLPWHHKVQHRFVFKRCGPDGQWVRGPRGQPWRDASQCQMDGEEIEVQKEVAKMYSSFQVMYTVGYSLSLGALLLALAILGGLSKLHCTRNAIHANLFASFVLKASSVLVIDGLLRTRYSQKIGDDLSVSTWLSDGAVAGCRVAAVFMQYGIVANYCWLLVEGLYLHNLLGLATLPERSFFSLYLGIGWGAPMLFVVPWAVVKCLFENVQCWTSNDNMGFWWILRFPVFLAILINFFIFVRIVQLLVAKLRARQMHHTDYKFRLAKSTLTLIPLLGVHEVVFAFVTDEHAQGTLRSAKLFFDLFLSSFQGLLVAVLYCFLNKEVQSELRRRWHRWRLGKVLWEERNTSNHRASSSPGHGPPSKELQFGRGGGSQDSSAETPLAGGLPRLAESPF
Procedure: The cells (14000 per well) were incubated (37° C., 5% CO2) overnight in 384-well plates. Next day the cells were loaded with a calcium responsive dye that only distributed into the cytoplasm. Probenecid, an inhibitor of the organic anion transporter, was added to prevent the dye from leaving the cell. A PDE inhibitor was added to prevent formatted cAMP from being degraded. […] End point data were collected after 6 minutes. An increase in intracellular cAMP was proportional to an increased in calcium concentrations in the cytoplasm. […] EC50-values were calculated in Prism5.

Row | Compound | EC50
1 | CC(C)C[C@H](NC(=O)[C@H](Cc1ccc(O)cc1)NC(=O)[C@H](CCCCN)NC(=O)[C@H](CO)NC(=O)[C@H](Cc1ccc(O)cc1)NC(=O)[C@H](CC(=O)O)NC(=O)[C@H](CO)NC(=O)[C@@H](NC(=O)[C@H](Cc1ccccc1)NC(=O)[C@@H](NC(=O)CNC(=O)[C@H](CCC(N)=O)NC(=O)[C@H](CO)NC(=O)[C@@H](N)Cc1c[nH]cn1)[C@@H](C)O)[C@@H](C)O)C(=O)N[C@@H](CC(=O)O)C(=O)N[C@@H](CO)C(=O)N[C@@H](CCCCNC(=O)COCCOCCNC(=O)COCCOCCNC(=O)CC[C@H](NC(=O)CCCCCCCCCCCCCCCCC(=O)O)C(=O)O)C(=O)N[C@@H](CCCNC(=N)N)C(=O)N[C@@H](C)C(=O)N[C@@H](CCC(N)=O)C(=O)N[C@@H](CC(=O)O)C(=O)N[C@@H](Cc1ccccc1)C(=O)N[C@H](C(=O)N[C@@H](CCC(N)=O)C(=O)N[C@@H](Cc1c[nH]c2ccccc12)C(=O)N[C@@H](CC(C)C)C(=O)N[C@@H](CC(C)C)C(=O)N[C@@H](CC(N)=O)C(=O)N[C@H](C(=O)O)[C@@H](C)O)C(C)C [Example 19] | 94 pM
2 | CSCC[C@H](NC(=O)[C@H](CC(C)C)NC(=O)[C@H](Cc1c[nH]c2ccccc12)NC(=O)[C@H](CCC(N)=O)NC(=O)[C@@H](NC(=O)[C@H](Cc1ccccc1)NC(=O)[C@H](CC(=O)O)NC(=O)[C@H](CCCCNC(=O)COCCOCCNC(=O)CC[C@H](NC(=O)CCCCCCCCCCCCCCCCC(=O)O)C(=O)O)NC(=O)[C@H](C)NC(=O)[C@H](CCCNC(=N)N)NC(=O)[C@H](CCCNC(=N)N)NC(=O)[C@H](CO)NC(=O)[C@H](CC(=O)O)NC(=O)[C@H](CC(C)C)NC(=O)[C@H](Cc1ccc(O)cc1)NC(=O)[C@H](CCCCN)NC(=O)[C@H](CO)NC(=O)[C@H](Cc1ccc(O)cc1)NC(=O)[C@H](CC(=O)O)NC(=O)[C@H](CO)NC(=O)[C@@H](NC(=O)[C@H](Cc1ccccc1)NC(=O)[C@@H](NC(=O)CNC(=O)[C@H](CCC(N)=O)NC(=O)[C@@H](CO)NC(=O)[C@@H](N)Cc1c[nH]cn1)[C@@H](C)O)[C@@H](C)O)C(C)C)C(=O)N[C@@H](CC(N)=O)C(=O)N[C@H](C(=O)N[C@@H](CCCCN)C(N)=O)[C@@H](C)O [Example 23, N^α-(N^ε24 [2-[2-[2-[[(4S)-5-hydroxy-4-[(18-hydroxy-18-oxo-octadecanoyl)amino]-5-oxo-pentanoyl]amino]ethoxy]ethoxy]acetyl] [D-Ser^e, Lys^20] Glucagonyl) Lysinyl amide] | 540 pM
3 | CSCC[C@H](NC(=O)[C@H](CC(C)C)NC(=O)[C@H](Cc1c[nH]c2ccccc12)NC(=O)[C@H](CCC(N)=O)NC(=O)[C@@H](NC(=O)[C@H](Cc1ccccc1)NC(=O)[C@H](CC(=O)O)NC(=O)[C@H](CCCNC(=N)N)NC(=O)[C@H](C)NC(=O)[C@H](CCCNC(=N)N)NC(=O)[C@H](CCC(N)=O)NC(=O)[C@H](CCC(=O)O)NC(=O)[C@H](CC(=O)O)NC(=O)[C@H](CC(C)C)NC(=O)[C@H](Cc1ccc(O)cc1)NC(=O)[C@H](CCCCN)NC(=O)[C@H](CO)NC(=O)[C@H](Cc1ccc(O)cc1)NC(=O)[C@H](CC(=O)O)NC(=O)[C@H](CO)NC(=O)[C@@H](NC(=O)[C@H](Cc1ccccc1)NC(=O)[C@@H](NC(=O)CNC(=O)[C@H](CCC(N)=O)NC(=O)[C@H](CO)NC(=O)[C@@H](N)Cc1c[nH]cn1)[C@@H](C)O)[C@@H](C)O)C(C)C)C(=O)N[C@@H](CC(N)=O)C(=O)N[C@H](C(=O)N[C@@H](CCCCNC(=O)COCCOCCNC(=O)COCCOCCNC(=O)CC[C@H](NC(=O)CCCCCCCCCCCCCCCCC(=O)O)C(=O)O)C(N)=O)[C@@H](C)O [Example 26, N^α ([Glu^16,Gln^17,Arg^20] Glucagonyl) N^ε-([2-[2-[2-[[2-[2-[2-[[(4S)-5-hydroxy-4-[(18-hydroxy-18-oxooctadecanoyl)amino]-5-oxopentanoyl]amino]ethoxy]ethoxy]acetyl]amino]ethoxy]ethoxy]acetyl]) Lysinyl amide] (H-HSQGTFTSDYSKYLDEQRARDFVQWLMNTK([AEEA-AEEA-γGlu-C18 diacid])-NH2; N-terminus assumed) | 192 pM
4 | CSCC[C@H](NC(=O)[C@H](CC(C)C)NC(=O)[C@H](Cc1c[nH]c2ccccc12)NC(=O)[C@H](CCC(N)=O)NC(=O)[C@@H](NC(=O)[C@H](Cc1ccccc1)NC(=O)[C@H](CC(=O)O)NC(=O)[C@H](CCCNC(=N)N)NC(=O)[C@H](C)NC(=O)[C@H](C)NC(=O)[C@H](CCC(N)=O)NC(=O)[C@H](CCC(=O)O)NC(=O)[C@H](CC(=O)O)NC(=O)[C@H](CC(C)C)NC(=O)[C@H](Cc1ccc(O)cc1)NC(=O)[C@H](CCCCN)NC(=O)[C@H](CO)NC(=O)[C@H](Cc1ccc(O)cc1)NC(=O)[C@H](CC(=O)O)NC(=O)[C@H](CO)NC(=O)[C@@H](NC(=O)[C@H](Cc1ccccc1)NC(=O)[C@@H](NC(=O)CNC(=O)[C@H](CCC(N)=O)NC(=O)[C@H](CO)NC(=O)[C@@H](N)Cc1c[nH]cn1)[C@@H](C)O)[C@@H](C)O)C(C)C)C(=O)N[C@@H](CC(N)=O)C(=O)N[C@H](C(=O)N[C@@H](CCCCNC(=O)COCCOCCNC(=O)COCCOCCNC(=O)CC[C@H](NC(=O)CCCCCCCCCCCCCCCCC(=O)O)C(=O)O)C(N)=O)[C@@H](C)O [Example 27, N^α ([Glu^16,Gln^17,Ala^18,Arg^20]Glucagonyl) N^ε-([2-[2-[2-[[2-[2-[2-[[(4S)-5-hydroxy-4-[(18-hydroxy-18-oxooctadecanoyl)amino]-5-oxopentanoyl]amino]ethoxy]ethoxy]acetyl]amino]ethoxy]ethoxy]acetyl]) Lysinyl amide] (H-HSQGTFTSDYSKYLDEQAARDFVQWLMNTK([AEEA-AEEA-γGlu-C18 diacid])-NH2; N-terminus assumed) | 406 pM
5 | CC(C)C[C@H](NC(=O)[C@H](Cc1ccc(O)cc1)NC(=O)[C@H](CCCCN)NC(=O)[C@H](CO)NC(=O)[C@H](Cc1ccc(O)cc1)NC(=O)[C@H](CC(=O)O)NC(=O)[C@H](CO)NC(=O)[C@@H](NC(=O)[C@H](Cc1ccccc1)NC(=O)[C@@H](NC(=O)CNC(=O)[C@H](CCC(N)=O)NC(=O)C(C)(C)NC(=O)[C@@H](N)Cc1c[nH]cn1)[C@@H](C)O)[C@@H](C)O)C(=O)N[C@@H](CC(=O)O)C(=O)N[C@@H](CCC(=O)O)C(=O)N[C@@H](CCCNC(=N)N)C(=O)N[C@@H](CCCNC(=N)N)C(=O)N[C@@H](C)C(=O)N[C@@H](CCC(N)=O)C(=O)N[C@@H](CC(=O)O)C(=O)N[C@@H](Cc1ccccc1)C(=O)N[C@H](C(=O)N[C@@H](CCCCNC(=O)COCCOCCNC(=O)COCCOCCNC(=O)CC[C@H](NC(=O)CCCCCCCCCCCCCCCCC(=O)O)C(=O)O)C(=O)N[C@@H](Cc1c[nH]c2ccccc12)C(=O)N[C@@H](CC(C)C)C(=O)N[C@@H](CC(C)C)C(=O)N[C@@H](CC(N)=O)C(=O)N[C@H](C(N)=O)[C@@H](C)O)C(C)C [Example 29, N^ε24-([2-[2-[2-[[2-[2-[2-[[(4S)-5-hydroxy-4-[(18-hydroxy-18-oxooctadecanoyl)amino]-5-oxopentanoyl]amino]ethoxy]ethoxy]acetyl]amino]ethoxy]ethoxy]acetyl]) [Aib^2,Glu^16,Lys^24,Leu^27]Glucagon peptide amide] (H-H[Aib]QGTFTSDYSKYLDERRAQDFVK([AEEA-AEEA-γGlu-C18 diacid])WLLNT-NH2; N-terminus assumed) | 135 pM
6 | CC(C)C[C@H](NC(=O)[C@H](Cc1ccc(O)cc1)NC(=O)[C@H](CCCCN)NC(=O)[C@H](CO)NC(=O)[C@H](Cc1ccc(O)cc1)NC(=O)[C@H](CC(=O)O)NC(=O)[C@H](CO)NC(=O)[C@@H](NC(=O)[C@H](Cc1ccccc1)NC(=O)[C@@H](NC(=O)CNC(=O)[C@H](CCC(N)=O)NC(=O)[C@@H](CO)NC(=O)[C@@H](N)Cc1c[nH]cn1)[C@@H](C)O)[C@@H](C)O)C(=O)N[C@@H](CC(=O)O)C(=O)N[C@@H](CCC(=O)O)C(=O)N[C@@H](CCC(N)=O)C(=O)N[C@@H](C)C(=O)N[C@@H](C)C(=O)N[C@@H](CCCNC(=N)N)C(=O)N[C@@H](CC(=O)O)C(=O)N[C@@H](Cc1ccccc1)C(=O)N[C@H](C(=O)N[C@@H](CCCCNC(=O)COCCOCCNC(=O)COCCOCCNC(=O)CC[C@H](NC(=O)CCCCCCCCCCCCCCCCC(=O)O)C(=O)O)C(=O)N[C@@H](Cc1c[nH]c2ccccc12)C(=O)N[C@@H](CC(C)C)C(=O)N[C@@H](CC(C)C)C(=O)N[C@@H](CC(N)=O)C(=O)N[C@H](C(N)=O)[C@@H](C)O)C(C)C [Example 30, N^ε24-([2-[2-[2-[[2-[2-[2-[[(4S)-5-hydroxy-4-[(18-hydroxy-18-oxooctadecanoyl)amino]-5-oxopentanoyl]amino]ethoxy]ethoxy]acetyl]amino]ethoxy]ethoxy]acetyl]) [D-Ser^2,Glu^16,Gln^17,Ala^18,Arg^20,Lys^24,Leu^27] Glucagon peptide amide] (H-H[dS]QGTFTSDYSKYLDEQAARDFVK([AEEA-AEEA-γGlu-C18 diacid])WLLNT-NH2; N-terminus assumed) | 137 pM
7 | CC(C)C[C@H](NC(=O)[C@H](Cc1ccc(O)cc1)NC(=O)[C@H](CCCCN)NC(=O)[C@H](CO)NC(=O)[C@H](Cc1ccc(O)cc1)NC(=O)[C@H](CC(=O)O)NC(=O)[C@H](CO)NC(=O)[C@@H](NC(=O)[C@H](Cc1ccccc1)NC(=O)[C@@H](NC(=O)CNC(=O)[C@H](CCC(N)=O)NC(=O)[C@H](CO)NC(=O)[C@@H](N)Cc1c[nH]cn1)[C@@H](C)O)[C@@H](C)O)C(=O)N[C@@H](CC(=O)O)C(=O)N[C@@H](CO)C(=O)N[C@@H](CCCNC(=N)N)C(=O)N[C@@H](CCCNC(=N)N)C(=O)N[C@@H](C)C(=O)N[C@@H](CCC(N)=O)C(=O)N[C@@H](CCC(=O)O)C(=O)N[C@@H](Cc1ccccc1)C(=O)N[C@H](C(=O)N[C@@H](CCCCNC(=O)COCCOCCNC(=O)COCCOCCNC(=O)CC[C@H](NC(=O)CCCCCCCCCCCCCCCCC(=O)O)C(=O)O)C(=O)N[C@@H](CCCNC(=N)N)C(=O)N[C@@H](CC(C)C)C(=O)N[C@@H](CC(C)C)C(=O)N[C@@H](CC(N)=O)C(=O)N[C@H](C(N)=O)[C@@H](C)O)C(C)C [Example 31, N^ε24-([2-[2-[2-[[2-[2-[2-[[(4S)-5-hydroxy-4-[(18-hydroxy-18-oxooctadecanoyl)amino]-5-oxopentanoyl]amino]ethoxy]ethoxy]acetyl]amino]ethoxy]ethoxy]acetyl])[Glu^21, Lys^24, Arg25 Leu^27,]Glucagon peptide amide] | 43 pM
